Assay results taken from patent US20090239926A1, “METHODS FOR THE TREATMENT OF PSORIASIS OR PSORIATIC ARTHRITIS USING CYCLOPROPYL-N-CARBOXAMIDE” (priority 2008, published 2009).
Where “and” joins values, the source holds several entries; their conditions need not be identical. Equal values may be shown once.

Assays:
bovine PDE1 = assay: Specificity: PDE1; assay type: biochemical; conditions: at 10 μM
Procedure: (§1) The specificity of Compound A for PDE4 was assessed by testing at a single concentration (10 μM) against bovine PDE1, human PDE2, PDE3 and PDE5 from human platelets, and PDE6 from bovine retinal rod outer segments.

[1] = test system: LPS-stimulated human whole blood TNF-α production; assay: LPS-induced TNF-α production in human whole blood; assay type: cell-based
Procedure: LPS-induced TNF-α production in Human Whole Blood: The ability of Compound A to inhibit LPS-induced TNF-α production by human whole blood was measured as described above for the LPS-induced TNF-α assay in human PBMC, except that freshly drawn whole blood was used instead of PBMC.

[2] = molecular target: T1, PDE5 from human platelets (Homo sapiens, UniProt O76074); assay: Specificity: PDE5; assay type: biochemical
T1 construct: PDE3 and PDE5 from human platelets; from tissue; host or cells: human platelets
Procedure: as §1

spontaneous behavior = assay: Spontaneous behavior (LABORAS) in non-arthritic mice; assay type: in vivo; conditions: 25 mg/kg/day
Procedure: Behavioral studies: The effect of Compound A (25 mg/kg/day) on spontaneous behavior was assessed using the LABORAS (Laboratory Animal Behavior Observation Registration and Analysis System), which is an automated system that detects vibrations evoked by movement of a single rodent in a cage. Pattern recognition software then recognizes and quantifies behaviors, including grooming, activity, climbing, immobility, and feeding.

[3] = test system: LPS-induced serum TNF-α in female BALB/c mice; assay: Mouse LPS-induced serum TNF-α production; assay type: in vivo; conditions: po
Procedure: Mouse LPS-induced serum TNF-α production: Compound A was administered to female BALB/c mice orally by gavage two hours prior to LPS challenge. Blood was drawn 1.5 hours after LPS challenge, and serum TNF-α was measured as described above.

CCOc1cc([C@@H](CS(C)(=O)=O)N2Cc3cccc(NC(=O)C4CC4)c3C2=O)ccc1OC [Compound A, cyclopropyl-N-{2-[(1S)-1-(3-ethoxy-4-methoxyphenyl)-2-(methylsulfonyl)ethyl]-3-oxoisoindoline-4-yl}carboxamide]
PDE1 % inhibition (bovine PDE1): 30% | IC50 [1]: 240 nM and 0.11 µg/mL | inhibition at 10 µM [2]: -7% | effect on climbing (spontaneous behavior): little or no effect | effect on grooming (spontaneous behavior): little or no effect | effect on locomotion (spontaneous behavior): only a modest reduction | effect on time spent immobile (spontaneous behavior): little or no effect | inhibition at 0.1 mg/kg ([3]; 2 h, 0.1 mg/kg p.o., two hours prior to LPS, n=2, read-out: inhibition of mouse LPS-induced serum TNF-α levels): 3% | inhibition at 1 mg/kg ([3]; 2 h, 1 mg/kg p.o., two hours prior to LPS, n=2, read-out: inhibition of mouse LPS-induced serum TNF-α levels): 83% | ED50 ([3]; read-out: Mouse LPS-induced serum TNF-α inhibition ED50): 0.1 to 1 mg/kg
